# Measured values as given in patent US10508120B2, “TYK2 inhibitors and uses thereof” (Nimbus Lakshmi, Inc., priority 2017, dated 2019).
# Key:
# [1] = target: human TYK2 (JH2domain-pseudokinase) (Homo sapiens (Human), UniProt P29597); assay: TYK2 JH2 Domain Binding Assay (KINOMEscan)
# Summary of the method: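 Competition binding of an NFkB-DBD fusion of human TYK2 JH2 (G556–D888), expressed in HEK293 and used as crude extract at <0.1 nM, against immobilized ligand beads; 1 h at room temperature in PBS/Tween/DTT/BSA buffer, 0.9% DMSO.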
# [2] = target: Tyk2/JAK2 (heterodimeric complex) (Homo sapiens (Human), UniProt P29597); assay: IL-12 Induced pSTAT4 in Human PBMC; format: cell-based; settings: 1.7 ng/mL IL-12
# Sequence of Tyk2/JAK2 (heterodimeric complex) (P29597 whole entry, other chains not shown): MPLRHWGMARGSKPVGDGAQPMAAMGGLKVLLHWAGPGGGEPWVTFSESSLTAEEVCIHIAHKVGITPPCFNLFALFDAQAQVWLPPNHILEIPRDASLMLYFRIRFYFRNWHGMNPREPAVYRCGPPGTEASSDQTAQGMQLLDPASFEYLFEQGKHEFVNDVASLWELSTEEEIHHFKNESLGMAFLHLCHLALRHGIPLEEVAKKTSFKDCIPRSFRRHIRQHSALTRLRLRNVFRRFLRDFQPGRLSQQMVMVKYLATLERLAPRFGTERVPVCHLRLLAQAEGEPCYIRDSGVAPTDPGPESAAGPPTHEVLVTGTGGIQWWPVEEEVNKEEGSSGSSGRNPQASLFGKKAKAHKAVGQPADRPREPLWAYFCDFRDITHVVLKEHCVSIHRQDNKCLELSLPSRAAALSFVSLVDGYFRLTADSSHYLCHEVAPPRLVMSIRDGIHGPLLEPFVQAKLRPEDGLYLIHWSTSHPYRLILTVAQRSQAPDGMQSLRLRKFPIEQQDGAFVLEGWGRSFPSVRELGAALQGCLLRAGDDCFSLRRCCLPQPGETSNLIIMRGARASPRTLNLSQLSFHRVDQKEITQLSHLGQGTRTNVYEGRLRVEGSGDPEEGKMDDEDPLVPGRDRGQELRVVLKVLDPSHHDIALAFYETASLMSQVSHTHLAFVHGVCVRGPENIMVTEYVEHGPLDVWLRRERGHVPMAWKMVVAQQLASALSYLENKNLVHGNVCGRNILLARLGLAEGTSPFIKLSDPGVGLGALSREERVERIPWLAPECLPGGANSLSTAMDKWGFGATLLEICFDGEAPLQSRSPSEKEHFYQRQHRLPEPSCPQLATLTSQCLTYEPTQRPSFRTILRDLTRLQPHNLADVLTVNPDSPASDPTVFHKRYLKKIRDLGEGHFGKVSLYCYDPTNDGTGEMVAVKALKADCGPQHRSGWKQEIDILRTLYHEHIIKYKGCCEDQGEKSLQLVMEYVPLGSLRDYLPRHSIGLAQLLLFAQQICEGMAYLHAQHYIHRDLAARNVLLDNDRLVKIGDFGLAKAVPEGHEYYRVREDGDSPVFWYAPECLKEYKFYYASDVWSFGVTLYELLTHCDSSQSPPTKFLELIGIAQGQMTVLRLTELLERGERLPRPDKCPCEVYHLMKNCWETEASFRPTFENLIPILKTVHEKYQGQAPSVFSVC
# Description: The IL-12 Induced pSTAT4 assay evaluates the inhibition of IL-12 induced STAT4 phophorylation mediated by Tyk2/JAK2 (heterodimeric complex).
# Sequence of human TYK2 (JH2domain-pseudokinase) (P29597 556-888): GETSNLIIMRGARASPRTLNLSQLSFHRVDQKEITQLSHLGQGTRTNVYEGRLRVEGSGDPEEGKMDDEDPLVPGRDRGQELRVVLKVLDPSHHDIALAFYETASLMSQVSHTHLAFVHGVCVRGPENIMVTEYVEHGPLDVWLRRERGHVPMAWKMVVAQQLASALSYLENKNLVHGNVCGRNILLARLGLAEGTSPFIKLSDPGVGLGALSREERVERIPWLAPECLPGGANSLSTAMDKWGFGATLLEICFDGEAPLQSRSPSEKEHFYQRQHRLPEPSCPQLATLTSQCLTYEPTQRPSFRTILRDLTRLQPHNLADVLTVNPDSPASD
Compound,Kd [1] [nM],IC50 [2] [nM]
CNC(=O)c1occc1Nc1cc(NC)n2ncc(C(=O)N[C@H]3CC[C@@H]3OC)c2n1 [I-1323],1 to 10,< 100
CNc1cc(-c2cn(C3CCOCC3)c3ncccc23)nc2c(C(=O)N[C@@H]3CC[C@H]3OC)cnn12 [I-1328],0.2 to 1,< 100
CNc1cc(Nc2cccn([C@@H]3CCC[C@@H](OC)C3)c2=O)nc2c(C(=O)N[C@H]3CC[C@@H]3OC)cnn12 [I-1331],1 to 10,< 100
CNc1cc(Nc2cccn([C@@H]3CCN(CCF)C3)c2=O)nc2c(C(=O)N[C@@H]3CC[C@H]3OC)cnn12 [I-1333],1 to 10,< 100
CNc1cc(-c2cn([C@H]3CCN(CCF)C3)c3ncccc23)nc2c(C(=O)N[C@@H]3C[C@@H]3F)cnn12 [I-1362],0.2 to 1,< 100
CNc1cc(-c2cn([C@@H]3CCCOC3)c3ncccc23)nc2c(C(=O)N[C@H]3CC[C@@H]3OC)cnn12 [I-1364],0.2 to 1,< 100
CNc1cc(-c2cn([C@@H]3CCN(CCF)C3)c3ncccc23)nc2c(C(=O)N[C@@H]3C[C@@H]3F)cnn12 [I-1366],1 to 10,< 100
CNc1cc(Nc2cccn([C@H]3CCC[C@H](OC)C3)c2=O)nc2c(C(=O)N[C@@H]3CC[C@H]3OC)cnn12 [I-1374],0.2 to 1,< 100
CNc1cc(Nc2cccn([C@H]3CCN(CCF)C3)c2=O)nc2c(C(=O)N[C@H]3CC[C@@H]3OC)cnn12 [I-1381],0.2 to 1,< 100
CNc1cc(Nc2cccn([C@H]3CC[C@@H]3O)c2=O)nc2c(C(=O)N[C@H]3CC[C@@H]3OC)cnn12 [I-1385],0.2 to 1,< 100
CNc1cc(-c2cn(C(C)C)c3ncc(F)cc23)nc2c(C(=O)N[C@H]3CC[C@H]3O)cnn12 [I-1387],1 to 10,< 100
CNc1cc(-c2cn(CCCO)c3ncccc23)nc2c(C(=O)N[C@H]3CC[C@@H]3OC)cnn12 [I-1388],0.2 to 1,< 100
CNc1cc(Nc2cccn(C3CC(F)(F)C3)c2=O)nc2c(C(=O)N[C@H]3CC[C@@H]3OC)cnn12 [I-1389],0.2 to 1,< 100
CNc1cc(Nc2cccn([C@H]3CCC[C@H](O)C3)c2=O)nc2c(C(=O)N[C@@H]3CC[C@H]3OC)cnn12 [I-1395],0.2 to 1,< 100
CNc1cc(Nc2cccn([C@@H]3CC[C@@H]3O)c2=O)nc2c(C(=O)N[C@H]3CC[C@@H]3OC)cnn12 [I-1411],1 to 10,< 100

# Further lines, results first:
Kd [1] [nM],IC50 [2] [nM],Compound
< 0.2,< 100,CNc1cc(-c2cn(CCCO)c3ncccc23)nc2c(C(=O)N[C@@H]3CC[C@H]3OC)cnn12 [I-1299]
< 0.2,< 100,CNc1cc(Nc2cccn([C@@H]3CC[C@H]3O)c2=O)nc2c(C(=O)N[C@@H]3CC[C@H]3OC)cnn12 [I-1309]
< 0.2,< 100,CNc1cc(-c2cn(C3CCOCC3)c3ncc(F)cc23)nc2c(C(=O)N[C@H]3CC[C@@H]3O)cnn12 [I-1314]
< 0.2,< 100,CNc1cc(Nc2cccn(-c3nn(C)cc3F)c2=O)nc2c(C(=O)N[C@@H]3C[C@@H]3F)cnn12 [I-1321]
< 0.2,< 100,CNc1cc(Nc2cc3cccnc3n2C2CC2)nc2c(C(=O)N[C@H]3CC[C@@H]3OC)cnn12 [I-1325]
< 0.2,< 100,CNc1cc(Nc2cccn([C@@H]3CC[C@@H]3O)c2=O)nc2c(C(=O)N[C@@H]3CC[C@H]3OC)cnn12 [I-1350]
< 0.2,< 100,CNc1cc(-c2cn([C@H]3CCCOC3)c3ncccc23)nc2c(C(=O)N[C@H]3CC[C@@H]3OC)cnn12 [I-1365]
< 0.2,< 100,CNc1cc(Nc2cccn([C@@H]3CCCN(CCF)C3)c2=O)nc2c(C(=O)N[C@H]3CC[C@@H]3OC)cnn12 [I-1382]
